This is an account of results in patent US9732094B2, “Arylquinazolines” (Merck Patent GmbH, priority 2013, dated 2017).

One data set deals with Kv11.1 (hERG) (Homo sapiens (Human), UniProt Q12809). Briefly: Kv11.1 ion channel binding assay (Predictor hERG fluorescence polarisation). Conditions: cells marked *: measured using hERG binding assay instead of hERG patch clamp assay; read-out: Ki [Kv1.11 hERG]. How it is done: D) Kv11.1 Ion Channel Binding Assay
Kv11.1 (hERG=human ether a go-go related […]) is a cardiac K^+ channel which should if possible not interact with the test substances. This interaction is determined quantitatively with the aid of the Predictor™ hERG Fluorescence Polarizations (FP) Assays from Life Technologies. In the case of this assay principle, cardiomyocyte cell membranes having a certain proportion of Kv11.1 channels are isolated. A dye-labelled Kv11.1 binding partner gives a high fluorescence polarisation signal by interaction with the Kv11.1. In the case of displacement of the dye, a reduction in the fluorescence polarisation signal occurs.
The assay is carried out automatically as follows: 15 nl of the test substances (highest concentration: 10 mM, 10 concentrations: dilution factors 1:3.16, DMSO) are transferred into an empty microtitre plates having 384 wells by means of an acoustic pipetter. 3 μl of the isolated membranes are subsequently added. Membranes and test substances are incubated at 22° C. for 15 min (+/−5 min). In the next step, the dye-labelled binding partner is added, followed by incubation at 22° C. After incubation for two hours, the measurement of the fluorescence polarisation is carried out on an Envision multimode Reader. Measured raw data are standardised with the aid of Genedata Assay Analyzer. The 1050 and % effect values are calculated in Genedata Condoseo.

For data set [1], the target named is DNA-PK phosphorylation at serine 2056 (Homo sapiens (Human), UniProt P78527). The data set is described as follows: DNA-PK phosphorylation at serine 2056 (cellular), bleomycin-treated HCT116 cells, ELISA. The data set is classed as cell-based. Particulars: cellular DNA-PK phosphorylation at serine 2056, HCT116; read-out: IC50 pDNA-PK. Summed up: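 HCT116 cells grown overnight were co-treated with 10 μM bleomycin and test compound for 6 h at 37 °C. Phospho-DNA-PK was quantified by chemiluminescent ELISA and normalised to total DNA-PKcs signal, with DMSO control as blank.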

The target of another data set is DNA-PK (Homo sapiens (Human), UniProt P78527). Briefly: DNA-PK assay (biochemical), flashplate 33P-ATP kinase assay. Particulars: biochemical DNA-PK assay. The procedure, abridged:
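Reactions ran in streptavidin-coated flashplates and were halted by 200 mM EDTA, with a further 30 min at room temperature before saline washing.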

Kv11.1 (hERG), sequence (Q12809 whole entry): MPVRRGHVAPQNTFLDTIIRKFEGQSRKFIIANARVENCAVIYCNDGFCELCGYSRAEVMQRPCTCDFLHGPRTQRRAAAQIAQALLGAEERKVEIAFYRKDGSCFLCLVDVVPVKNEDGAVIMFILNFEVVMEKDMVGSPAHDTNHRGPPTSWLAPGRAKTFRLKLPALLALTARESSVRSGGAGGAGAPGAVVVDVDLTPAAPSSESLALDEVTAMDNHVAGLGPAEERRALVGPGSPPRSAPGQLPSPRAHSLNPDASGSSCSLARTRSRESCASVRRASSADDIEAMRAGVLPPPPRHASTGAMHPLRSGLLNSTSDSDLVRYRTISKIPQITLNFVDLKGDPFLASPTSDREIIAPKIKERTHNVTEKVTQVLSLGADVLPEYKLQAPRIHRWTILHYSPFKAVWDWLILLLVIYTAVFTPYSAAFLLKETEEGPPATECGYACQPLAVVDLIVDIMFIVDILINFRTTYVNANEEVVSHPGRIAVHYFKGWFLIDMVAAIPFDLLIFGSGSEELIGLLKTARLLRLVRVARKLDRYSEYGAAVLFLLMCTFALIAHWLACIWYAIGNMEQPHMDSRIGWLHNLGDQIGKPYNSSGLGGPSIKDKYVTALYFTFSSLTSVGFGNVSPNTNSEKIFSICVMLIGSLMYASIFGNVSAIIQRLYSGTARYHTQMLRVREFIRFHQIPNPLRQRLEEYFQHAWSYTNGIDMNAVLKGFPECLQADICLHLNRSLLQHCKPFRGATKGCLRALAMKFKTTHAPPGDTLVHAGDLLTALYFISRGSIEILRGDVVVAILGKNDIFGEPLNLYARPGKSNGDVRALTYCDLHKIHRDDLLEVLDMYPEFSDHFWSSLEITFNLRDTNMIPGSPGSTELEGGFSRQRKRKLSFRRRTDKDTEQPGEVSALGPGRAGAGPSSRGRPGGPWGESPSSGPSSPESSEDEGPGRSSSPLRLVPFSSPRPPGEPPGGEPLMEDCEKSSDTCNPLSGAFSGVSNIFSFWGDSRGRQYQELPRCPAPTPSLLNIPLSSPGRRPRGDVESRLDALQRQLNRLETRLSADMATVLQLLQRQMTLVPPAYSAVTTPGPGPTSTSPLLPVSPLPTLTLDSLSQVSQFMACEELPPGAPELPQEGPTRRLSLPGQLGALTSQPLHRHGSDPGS

Consider `Cc1nccnc1C(O)c1cc(-c2ncnc3cc(N4CCOCC4)sc23)c(F)cc1Cl` (stereo not drawn) [Example 264, [2-Chloro-4-fluoro-5-(6-morpholin-4-yl-thieno[3,2-d}-pyrimidin-4-yl)-phenyl]-(3-methyl-pyrazin-2-yl)-methanol], for which the Ki on Kv11.1 (hERG) was more than 25000 nM. Moreover, the IC50 in data set [1] is less than 500 nM; at DNA-PK, less than 3 nM.

For `Cc1nccnc1C(C(N)=O)c1ccc(F)c(-c2ncnc3cc(N4CCOCC4)sc23)c1` (stereo not drawn) [Example 270, 2-[4-Fluoro-3-(6-morpholin-4-yl-thieno[3,2-d}-pyrimidin-4-yl)-phenyl]-2-(3-methyl-pyrazin-2-yl)-acetamide], the Ki at Kv11.1 (hERG) was more than 25000 nM. In addition, the IC50 in data set [1] was in the range of 5000 to 10000 nM; against DNA-PK it was 3 to 7 nM.

With `NC(=O)C(c1ccc(F)c(-c2ncnc3cc(N4CCOCC4)ccc23)c1)c1nncc2ccsc12` (stereo not drawn) [Example 284, 2-[4-Fluoro-3-(7-morpholin-4-yl-quinazolin-4-yl)-phenyl]-2-thieno-[2,3-d}pyridazin-7-yl-acetamide], the Ki on Kv11.1 (hERG) was more than 25000 nM. The IC50 was 10000 to 30000 nM in data set [1] and 3 to 7 nM against DNA-PK.

For the molecule `COc1ccc(C(O)c2ccc(F)c(-c3ncnc4cc(N5CCOCC5)cc(F)c34)c2)nn1` (stereo not drawn) [Example 256, [4-Fluoro-3-(5-fluoro-7-morpholin-4-yl-quinazolin-4-yl)-phenyl]-(6-methoxy-pyridazin-3-yl)-methanol], the Ki at Kv11.1 (hERG) is more than 25000 nM. The results for the IC50 (in data set [1]; against DNA-PK) were less than 500 nM and less than 3 nM, respectively.

Turning to `[2H]C1([2H])OC([2H])([2H])C([2H])([2H])N(c2ccc3c(-c4cc(C(O)c5nccnc5OC)c(Cl)cc4F)ncnc3c2)C1([2H])[2H]` (stereo not drawn) [Example 258, [2-Chloro-4-fluoro-5-[7-(2,2,3,3,5,5,6,6-octadeutenomorpholin-4-yl)quinazolin-4-yl]phenyl]-(3-methoxypyrazin-2-yl)methanol], the Ki at Kv11.1 (hERG) was more than 25000 nM. Besides, the figures for the IC50 (in data set [1]; against DNA-PK) were less than 500 nM and 3 to 7 nM, respectively.

With `CNC(=O)C(c1ccc(F)c(-c2ncnc3cc(N4CCOCC4)ccc23)c1)c1ncccc1Cl` (stereo not drawn) [Example 230, 2-(3-Chloro-pyridin-2-yl)-2-[4-fluoro-3-(7-morpholin-4-yl-quinazolin-4-yl)-phenyl]-N-methyl-acetamide], the Ki on Kv11.1 (hERG) was 15000 to 25000 nM. The values for the IC50 (in data set [1]; against DNA-PK) were 5000 to 10000 nM and 7 to 30 nM, respectively.

As to `OC(c1ccc(F)c(-c2ncnc3cc(N4CCOCC4)ccc23)c1)c1ncnc2ccoc12` (stereo not drawn) [Example 471, [4-Fluoro-3-(7-morpholin-4-yl-quinazolin-4-yl)-phenyl]furo[3,2-d}-pyrimidin-4-yl-methanol], the Ki at Kv11.1 (hERG) was more than 25000 nM. Besides, the values for the IC50 (in data set [1]; at DNA-PK) were less than 500 nM and less than 3 nM, respectively.

On to `CNC(=O)C(c1cc(-c2ncnc3cc(N4CCOCC4)ccc23)c(F)cc1Cl)c1nccnc1C` (stereo not drawn) [Example 254, 2-[2-Chloro-4-fluoro-5-(7-morpholin-4-yl-quinazolin-4-yl)-phenyl]-N-methyl-2-(3-methyl-pyrazin-2-yl)acetamide], for which, at Kv11.1 (hERG), the Ki was more than 25000 nM. The IC50 in data set [1] was 10000 to 30000 nM; at DNA-PK, 7 to 30 nM.

`OC(c1ccc(F)c(-c2ncnc3cc(N4CCOCC4)ccc23)c1)c1nccn2ncnc12` (stereo not drawn) [Example 279, [4-Fluoro-3-(7-morpholin-4-yl-quinazolin-4-yl)-phenyl]-[1,2,4]-triazolo[1,5-a]-pyrazin-8-ylmethanol]: the Ki on Kv11.1 (hERG) is more than 25000 nM. The figures for the IC50 (in data set [1]; against DNA-PK) were 5000 to 10000 nM and 3 to 7 nM, respectively.

In the case of `Cc1nccnc1C(O)c1ccc(F)c(-c2ncnc3cc(N4CCOCC4)sc23)c1` (stereo not drawn) [Example 265, [4-Fluoro-3-(6-morpholin-4-yl-thieno[3,2-d}-pyrimidin-4-yl)-phenyl]-(3-methyl-pyrazin-2-yl)-methanol], the inhibition constant (Ki) on Kv11.1 (hERG) is more than 25000 nM. Further, the concentration for half-maximal inhibition (IC50) in data set [1] was less than 500 nM; on DNA-PK, less than 3 nM.

On to `CN1N=C(C(O)c2cc(-c3ncnc4cc(N5CCOCC5)ccc34)c(F)cc2Cl)CCC1=O` (stereo not drawn) [Example 288, 6-{[2-Chloro-4-fluoro-5-(7-morpholin-4-yl-quinazolin-4-yl)-phenyl]hydroxy-methyl}-2-methyl-4,5-dihydro-2H-pyridazin-3-one], for which the Ki at Kv11.1 (hERG) is more than 25000 nM. Moreover, the results for the IC50 (in data set [1]; at DNA-PK) were 5000 to 10000 nM and 7 to 30 nM, respectively.

For the molecule `NC(=O)C(c1ccc(F)c(-c2ncnc3cc(N4CCOCC4)ccc23)c1)c1nccn2ncnc12` (stereo not drawn) [Example 280, 2-[4-Fluoro-3-(7-morpholin-4-yl-quinazolin-4-yl)-phenyl]-2-[1,2,4]-triazolo[1,5-a]-pyrazin-8-yl-acetamide], on Kv11.1 (hERG), the Ki was more than 25000 nM. The IC50 lay in the range of 10000 to 30000 nM in data set [1] and 7 to 30 nM at DNA-PK.

For the molecule `Cc1nccnc1C(O)c1ccc(F)c(-c2ncnc3cc(N4CCOCC4)sc23)c1` (stereo not drawn) [Example 246, [4-Fluoro-3-(6-morpholin-4-yl-thieno[3,2-d}-pyrimidin-4-yl)-phenyl]-(3-methyl-pyrazin-2-yl)-methanol], the Ki on Kv11.1 (hERG) was more than 25000 nM. Further, the IC50 in data set [1] fell in the range of 500 to 5000 nM; on DNA-PK, 3 to 7 nM.

On to `COc1nccnc1C(O)c1cc(-c2ncnc3cc(N4CCOCC4)cc(F)c23)c(F)cc1Cl` (stereo not drawn) [Example 249, [2-Chloro-4-fluoro-5-(5-fluoro-7-morpholin-4-yl-quinazolin-4-yl)-phenyl]-(3-methoxy-pyrazin-2-yl)-methanol], for which the Ki at Kv11.1 (hERG) is more than 25000 nM. The IC50 in data set [1] was less than 500 nM; at DNA-PK it was less than 3 nM.

In the case of `COc1nccnc1C(O)c1ccc(F)c(-c2ncnc3cc(N4CCOCC4)cc(F)c23)c1` (stereo not drawn) [Example 267, [4-Fluoro-3-(5-fluoro-7-morpholin-4-yl-quinazolin-4-yl)-phenyl]-(3-methoxy-pytazin-2-yl)-methanol], at Kv11.1 (hERG), the Ki is more than 25000 nM. The results for the IC50 (in data set [1]; against DNA-PK) were less than 500 nM and less than 3 nM, respectively.

In the case of `COc1nccnc1C(O)c1ccc(F)c(-c2ncnc3cc(N4CCOCC4)cc(F)c23)c1` (single isomer, unassigned) [Example 252, [4-Fluoro-3-(5-fluoro-7-morpholin-4-yl-quinazolin-4-yl)-phenyl]-(3-methoxy-pyrazin-2-yl)-methanol], on Kv11.1 (hERG), the Ki is more than 25000 nM. In addition, the IC50 in data set [1] was less than 500 nM; on DNA-PK, less than 3 nM.

For `Cc1nccnc1C(O)c1ccc(F)c(-c2ncnc3cc(N4CCOCC4)cc(F)c23)c1` (stereo not drawn) [Example 268, [4-Fluoro-3-(5-fluoro-7-morpholin-4-ylquinazolin-4-yl)phenyl]-(3-methylpyrazin-2-yl)methanol], the Ki on Kv11.1 (hERG) was more than 25000 nM. In addition, the IC50 in data set [1] was less than 500 nM; at DNA-PK, less than 3 nM.

`COc1ccc(C(O)c2ccc(F)c(-c3ncnc4cc(N5CCOCC5)c(F)cc34)c2)nn1` (stereo not drawn) [Example 282, [4-Fluoro-3-(6-fluoro-7-morpholin-4-yl-quinazolin-4-yl)-phenyl]-(6-methoxy-pyridazin-3-yl)-methanol]: on Kv11.1 (hERG), the Ki was more than 25000 nM. In addition, the IC50 in data set [1] was 10000 to 30000 nM; against DNA-PK, more than 30 nM.

With `COc1ccc(C(O)c2ccc(F)c(-c3ncnc4cc(N5CCOCC5)cc(F)c34)c2)nn1` (stereo not drawn) [Example 255, [4-Fluoro-3-(5-fluoro-7-morpholin-4-yl-quinazolin-4-yl)-phenyl]-(6-methoxy-pyridazin-3-yl)-methanol], at Kv11.1 (hERG), the Ki is more than 25000 nM. Also, the IC50 in data set [1] was less than 500 nM; at DNA-PK it was 7 to 30 nM.
